Our source for the inhibition and IC50 values is ChEMBL document CHEMBL5532720, “A Potent Solution for Tumor Growth and Angiogenesis Suppression via an ELR+CXCL-CXCR1/2 Pathway Inhibitor” (ACS Med Chem Lett, 2024).

The source made the active and inactive calls. The rule behind the calls is not given here. A value given as a limit tells only on which side of the number the result lay.

For test [1], the system named is A498. Description: Inhibition of CXCL8-induced cell migration in human A498 cells at 0.5 uM incubated for 24 hrs by crystal violet staining based analysis relative to control. It counts as functional.
Test [2] deals with A498. In words: Antiproliferative activity against human A498 cells incubated for 48 hrs by XTT assay. The test is classed as functional, cell-based. As to conditions: A498, 48 h.
A short description of test [3]: Antiproliferative activity against human Cisplatin and radiotherapy resistant CAL33RR cells incubated for 48 hrs by XTT assay. It counts as functional, cell-based.
In another test the test system is CAL-27. Description: Antiproliferative activity against human CAL-27 cells incubated for 48 hrs by XTT assay. The test is classed as functional, cell-based. Conditions: CAL-27, 48 h. A general note: Tetrazolium dyes change colour on reduction, which living cells bring about.
The subject of another test is CAL-33. In words: Antiproliferative activity against human CAL-33 cells incubated for 48 hrs by XTT assay. The test is classed as functional, cell-based. Conditions: CAL-33, 48 h.
Another test relates to RCC4. Description: Antiproliferative activity against human RCC4 cells incubated for 48 hrs by XTT assay. It counts as functional, cell-based. Conditions: RCC4, 48 h.
A short description of test [4]: Antiproliferative activity against human Sunitinib-resistant 786-R cells incubated for 48 hrs by XTT assay. It counts as functional, cell-based.
The subject of a further test is 786-0. Description: Antiproliferative activity against human 786-0 cells incubated for 48 hrs by XTT assay. It counts as functional, cell-based. As to conditions: 786-0, 48 h.
Test [5] has as its system A498. Description: Inhibition of cell invasion in human A498 cells cultured as 3D spheroids at 5 uM measured after 7 days by light microscopic imaging analysis relative to control. Conditions: A498, 168 h, time 7 day. It counts as functional.
A short description of test [6]: Antiproliferative activity against human Cisplatin and radiotherapy resistant CAL27RR cells incubated for 48 hrs by XTT assay. It counts as functional, cell-based.
The subject of test [7] is A498. In words: Inhibition of cell invasion in human A498 cells cultured as 3D spheroids at 5 uM measured after 7 days by light microscopic imaging analysis. The test is classed as functional, cell-based. Conditions: time 7.0 day.

`O=C(Nc1ccc(Br)cc1)Nc1nc2ccc([N+](=O)[O-])cc2s1`: the inhibition – broadly, the change of the read-out against control, counted positive when it falls – at 0.5 µM in the test with A498 [1] was over 50%. The IC50 (commonly the concentration that inhibits the measured activity by half) in the test with A498 [2] was 2.5 µM; in test [3] it was 5 µM; in the test with CAL-27, 5 µM; with CAL-33, 2 µM; in the test on RCC4 it was 7 µM; in [4], 5 µM. Further, the concentration for half-maximal inhibition (IC50) in the test on 786-0 stood at 5 µM; in test [6], 2.5 µM. Moreover, the inhibition at 5 µM in the test with A498 [5] is over 75%.

As for `Cc1noc(C)c1-c1ccc2nc(NC(=O)Nc3cccc(Cl)c3)sc2c1`, the half-inhibitory concentration (IC50) was 3 µM in the test with A498 [2]; 3.5 µM in test [3]; 1 µM with CAL-27; 3.5 µM with CAL-33; 5 µM with RCC4; 4 µM in test [4]. Also, the IC50 (in the test on 786-0; in test [6]) was 2.5 µM each time. In the test with A498 [7], the inhibition result was “Active”.

In the test with A498 [1], `O=C(Nc1ccc(Cl)cc1)Nc1nc2ccc([N+](=O)[O-])cc2s1` gave an inhibition at 0.5 µM of over 50%. In addition, the concentration for half-maximal inhibition (IC50) in the test on A498 [2] was 3 µM; in test [3] it was 2 µM; in the test on CAL-27, 5 µM; in the test on CAL-33 it was 2.5 µM; with RCC4, 3 µM; in [4] it was 5 µM. The results for the IC50 (with 786-0; in [6]) were 2 µM and 4 µM, respectively. In the test with A498 [5], this molecule came in with an inhibition at 5 µM of over 75%.

For `Cc1nn(C)cc1-c1ccc2nc(NC(=O)Nc3cccc(Cl)c3)sc2c1`, the IC50 came out at 5 µM in the test with A498 [2]; 7 µM in test [3]; 7 µM with CAL-27; 6 µM with CAL-33; 8 µM in the test on RCC4; 8 µM in [4]. In addition, the IC50 turned out to be 4 µM in the test on 786-0 and 6 µM in test [6]. In addition, in the test with A498 [7], the inhibition entry is “Active”.

For the molecule `O=C(Nc1cccc(Cl)c1)Nc1nc2ccc(-c3cccc4ccccc34)cc2s1`, the IC50 in the test on A498 [2] is 5 µM; in test [3], over 25 µM; with CAL-27, over 25 µM; in the test with CAL-33, 12 µM; with RCC4, 8 µM; in test [4] it was 10 µM. For the same molecule, the IC50 in the test with 786-0 is 7 µM; in test [6], over 25 µM. Besides, in the test on A498 [7], the inhibition entry is “inactive”.
